How the values were obtained:
Type in all cases: biochemical
Recombinant human Src = target: T1, Recombinant human Src (Homo sapiens, UniProt P12931); experiment: Src tyrosine kinase activity, poly E4Y / 32P-ATP phosphorylation assay
T1 construct: made in house; host or cells: baculovirus-insect cell system

FGF receptor (FGFr) = experiment: FGFr tyrosine kinase activity, poly E4Y / 32P-ATP phosphorylation assay
Recombinant Csk = Recombinant Csk (Homo sapiens, UniProt P41240); experiment: Csk tyrosine kinase activity, poly E4Y / 32P-ATP phosphorylation assay
[1] = Table 3, Formula II compounds, NI = no inhibition at 100 μg/mL
[2] = Table 2, Formula I compounds, NI = no inhibition at 100 μg/mL
[3] = poly E4Y / 32P-ATP, Formula IV compounds
[4] = Table 4, Formula III compounds, NI = no inhibition at 100 μg/mL

T1 sequence (P12931 whole entry): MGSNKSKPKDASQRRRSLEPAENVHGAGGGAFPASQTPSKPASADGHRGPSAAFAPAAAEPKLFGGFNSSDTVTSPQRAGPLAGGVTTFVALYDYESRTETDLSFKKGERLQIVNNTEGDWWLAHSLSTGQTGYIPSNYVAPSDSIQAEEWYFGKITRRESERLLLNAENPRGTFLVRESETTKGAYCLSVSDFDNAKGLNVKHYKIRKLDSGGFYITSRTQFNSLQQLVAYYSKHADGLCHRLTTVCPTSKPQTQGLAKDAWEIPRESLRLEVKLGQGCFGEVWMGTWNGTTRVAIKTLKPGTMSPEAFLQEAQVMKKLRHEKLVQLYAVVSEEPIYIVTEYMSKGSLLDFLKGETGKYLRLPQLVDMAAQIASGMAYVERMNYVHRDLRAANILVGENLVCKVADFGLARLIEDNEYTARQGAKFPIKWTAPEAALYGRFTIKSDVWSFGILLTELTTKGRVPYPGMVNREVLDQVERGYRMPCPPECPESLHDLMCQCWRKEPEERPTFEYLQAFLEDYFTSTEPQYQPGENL
Sequence of Recombinant Csk (P41240 whole entry, species assumed): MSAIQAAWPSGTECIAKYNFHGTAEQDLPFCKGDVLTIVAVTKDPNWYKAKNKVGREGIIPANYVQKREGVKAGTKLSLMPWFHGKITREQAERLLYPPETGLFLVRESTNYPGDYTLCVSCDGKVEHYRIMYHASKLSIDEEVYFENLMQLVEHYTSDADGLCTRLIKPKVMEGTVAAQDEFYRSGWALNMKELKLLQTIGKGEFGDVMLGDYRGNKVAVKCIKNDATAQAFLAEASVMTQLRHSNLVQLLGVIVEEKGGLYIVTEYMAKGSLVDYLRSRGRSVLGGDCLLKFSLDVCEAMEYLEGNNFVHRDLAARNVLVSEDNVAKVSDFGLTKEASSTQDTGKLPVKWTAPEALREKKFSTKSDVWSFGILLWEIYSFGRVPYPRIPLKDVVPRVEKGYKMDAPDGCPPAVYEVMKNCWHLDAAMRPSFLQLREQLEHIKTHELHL

For `COc1cccc(NS(=O)(=O)c2ccc(C)cc2)c1NS(=O)(=O)c1ccc(C)cc1` [Compound 22a, N-[3-methoxy-2-(4-toluenesulfonylamino)-phenyl]-4-toluenesulfonamide], the IC50 (Recombinant human Src; [1]) was greater than 224 µM, the “IC50 (μM) FGFr” value (FGF receptor (FGFr); [1]) was “NI (NI = no inhibition at 100 μg/mL)” and the IC50 (Recombinant Csk; [1]) was greater than 224 µM.

`COc1ccc(Oc2ccc(NS(=O)(=O)c3ccc4ccccc4c3)c(NS(=O)(=O)c3ccc4ccccc4c3)c2)cc1` [Compound 12i, naphthalene-2-sulfonic acid [4-(4-methoxy-phenoxy)-2-(naphthalen-2-yl-sulfonylamino)-phenyl]-amide] gave an IC50 (Recombinant human Src; [1]) of 8 µM, an IC50 (FGF receptor (FGFr); [1]) of 48 µM and an IC50 (Recombinant Csk; [1]) greater than 164 µM.

`Cc1ccc(S(=O)(=O)Nc2cc(SCc3ccc(Cl)cc3)c([N+](=O)[O-])cc2NS(=O)(=O)c2ccc(C)cc2)cc1` [Compound 4q, N-[4-(4-chloro-benzylsulfanyl)-5-nitro-2-(4-toluenesulfonylamino)-phenyl]-4-toluenesulfonamide] showed an IC50 (Recombinant human Src; [2]) of 1 µM, an IC50 (FGF receptor (FGFr); [2]) of 2.7 µM and an IC50 (Recombinant Csk; [2]) of 4.1 µM.

For `COc1ccc(OCc2ccc(OS(=O)(=O)c3ccc(C)cc3)c(OS(=O)(=O)c3ccc(C)cc3)c2)cc1` [Compound 48, [4-(4-methoxy-phenoxymethyl)-2-(4-toluenesulfonyloxy)-phenyl]-4-toluenesulfonate], the IC50 (Recombinant human Src; [3]) was 102 µM, the “IC50 (μM) FGFr” value (FGF receptor (FGFr); [3]) was “NI (NI = no inhibition at 100 μg/mL)” and the IC50 (Recombinant Csk; [3]) was greater than 180 µM.

In the case of `Cc1ccc(S(=O)(=O)Nc2cc(Sc3ccc(Cl)cc3)c([N+](=O)[O-])cc2NS(=O)(=O)c2ccc(C)cc2)cc1` [Compound 4e, N-[4-(4-chloro-phenylsulfanyl)-5-nitro-2-(4-toluenesulfonylamino)-phenyl]-4-toluenesulfonamide], the IC50 (Recombinant human Src; [2]) is reported as 8 µM, the IC50 (FGF receptor (FGFr); [2]) is reported as 1.7 µM and the IC50 (Recombinant Csk; [2]) is reported as 23 µM.

`CCCCSc1ccc(NS(=O)(=O)c2ccc(C)cc2)c(NS(=O)(=O)c2ccc(C)cc2)c1` [Compound 12hh, N-[4-butylsulfanyl-2-(4-toluenesulfonylamino)-phenyl]-4-toluenesulfonamide] gave an IC50 (Recombinant human Src; [1]) of 18 µM, an IC50 (FGF receptor (FGFr); [1]) of 30 µM and an IC50 (Recombinant Csk; [1]) greater than 198 µM.

`COc1ccc(NS(=O)(=O)c2ccc(C)cc2)c(NS(=O)(=O)c2ccc(C)cc2)c1` [Compound 12v, N-[4-methoxy-2-(4-toluenesulfonylamino)-phenyl]-4-toluenesulfonamide] was tested, and the IC50 (Recombinant human Src; [1]) was 69 µM, the IC50 (FGF receptor (FGFr); [1]) was 145 µM and the IC50 (Recombinant Csk; [1]) was greater than 224 µM.

`COc1ccc(Oc2ccc(NS(=O)(=O)c3ccc(Cl)cc3)c(NS(=O)(=O)c3ccc(Cl)cc3)c2)cc1` [Compound 12c, 4-chloro-N-[2-(4-chloro-benzenesulfonylamino)-4-(4-methoxy-phenoxy)-phenyl]-benzenesulfonamide] was tested, and the IC50 (Recombinant human Src; [1]) was 8.6 µM, the IC50 (FGF receptor (FGFr); [1]) was 19 µM and the IC50 (Recombinant Csk; [1]) was 95 µM.

`COc1ccc(Oc2ccc(NS(=O)(=O)c3ccc(C)cc3)c(OC)c2)cc1` [Compound 60, N-[2-methoxy-4-(4-methoxy-phenoxy)-phenyl]-4-toluenesulfonamide] was tested, and the IC50 (Recombinant human Src; [3]) was 129 µM, the “IC50 (μM) FGFr” value (FGF receptor (FGFr); [3]) was “NI (NI = no inhibition at 100 μg/mL)” and the IC50 (Recombinant Csk; [3]) was greater than 250 µM.

For `Cc1ccc(S(=O)(=O)Nc2cc(SCc3ccccc3Cl)c([N+](=O)[O-])cc2NS(=O)(=O)c2ccc(C)cc2)cc1` [Compound 4r, N-[4-(2-chloro-benzylsulfanyl)-5-nitro-2-(4-toluenesulfonylamino)-phenyl]-4-toluenesulfonamide], the IC50 (Recombinant human Src; [2]) was 0.65 µM, the IC50 (FGF receptor (FGFr); [2]) was 1.9 µM and the IC50 (Recombinant Csk; [2]) was 4.2 µM.

With `COc1ccc(Oc2ccc(NS(=O)(=O)c3ccc(C)cc3)c(NS(=O)(=O)c3ccc(C)cc3)c2)cc1` [Compound 12p, N-[5-(4-methoxy-phenoxy)-2-(4-toluenesulfonylamino)-phenyl]-4-toluenesulfonamide] the IC50 (Recombinant human Src; [1]) was 28 µM, the IC50 (FGF receptor (FGFr); [1]) was 26 µM and the IC50 (Recombinant Csk; [1]) was greater than 186 µM.

`Cc1ccc(S(=O)(=O)Nc2cc(N)c(Sc3ccc(Cl)cc3)cc2NS(=O)(=O)c2ccc(C)cc2)cc1` [Compound 23, N-[5-amino-4-(4-chloro-phenylsulfanyl)-2-(4-toluenesulfonylamino)-phenyl]-4-toluenesulfonamide] was tested, and the IC50 (Recombinant human Src; [4]) was 58 µM, the IC50 (FGF receptor (FGFr); [4]) was 56 µM and the IC50 (Recombinant Csk; [4]) was 280 µM.

In the case of `Cc1ccc(S(=O)(=O)Nc2ccc(OCc3cccc(Cl)c3)cc2NS(=O)(=O)c2ccc(C)cc2)cc1` [Compound 15c, N-[4-(3-chloro-benzyloxy)-2-(4-toluenesulfonylamino)-phenyl]-4-toluenesulfonamide], the IC50 (Recombinant human Src; [1]) is reported as 27 µM, the IC50 (FGF receptor (FGFr); [1]) is reported as 54 µM and the IC50 (Recombinant Csk; [1]) is reported as greater than 180 µM.

With `Cc1ccc(C(=O)Nc2ccc(Sc3ccc(Cl)cc3)cc2NC(=O)c2ccc(C)cc2)cc1` [Compound 52, N-[4-(4-chloro-phenylsulfanyl)-2-(4-toluoylamino)-phenyl]-4-toluamide] the IC50 (Recombinant human Src; [3]) was 51 µM, the “IC50 (μM) FGFr” value (FGF receptor (FGFr); [3]) was “NI (NI = no inhibition at 100 μg/mL)” and the IC50 (Recombinant Csk; [3]) was greater than 205 µM.

For `COc1ccc(Sc2ccc(NS(=O)(=O)c3ccc(C)cc3)c(NS(=O)(=O)c3ccc(C)cc3)c2)cc1` [Compound 12gg, N-[5-(4-methoxy-phenylsulfanyl)-2-(4-toluenesulfonylamino)-phenyl]-4-toluenesulfonamide], the IC50 (Recombinant human Src; [1]) was 16 µM, the IC50 (FGF receptor (FGFr); [1]) was 17 µM and the IC50 (Recombinant Csk; [1]) was greater than 180 µM.

Work on `Cc1ccc(S(=O)(=O)Nc2cc(Br)c(Br)cc2NS(=O)(=O)c2ccc(C)cc2)cc1` [Compound 38a, N-[4,5-dibromo-2-(4-toluenesulfonylamino)-phenyl]-4-toluenesulfonamide] yielded an IC50 (Recombinant human Src; [4]) of 31 µM, an IC50 (FGF receptor (FGFr); [4]) of 110 µM and an IC50 (Recombinant Csk; [4]) greater than 174 µM.

Work on `COc1cccc(Sc2cc(NS(=O)(=O)c3ccc(C)cc3)c(NS(=O)(=O)c3ccc(C)cc3)cc2[N+](=O)[O-])c1` [Compound 4c, N-[4-(3-methoxy-phenylsulfanyl)-5-nitro-2-(4-toluenesulfonylamino)-phenyl]-4-toluenesulfonamide] yielded an IC50 (Recombinant human Src; [2]) of 3.5 µM, an IC50 (FGF receptor (FGFr); [2]) of 7.5 µM and an IC50 (Recombinant Csk; [2]) of 8.3 µM.

In the case of `Cc1ccc(S(=O)(=O)Nc2ccc(OCc3ccccc3Cl)cc2NS(=O)(=O)c2ccc(C)cc2)cc1` [Compound 15d, N-[4-(2-chloro-benzyloxy)-2-(4-toluenesulfonylamino)-phenyl]-4-toluenesulfonamide], the IC50 (Recombinant human Src; [1]) is reported as 14 µM, the IC50 (FGF receptor (FGFr); [1]) is reported as 66 µM and the IC50 (Recombinant Csk; [1]) is reported as 59 µM.

Work on `Cc1ccc(S(=O)(=O)Nc2cc(Sc3ccccc3C)c([N+](=O)[O-])cc2NS(=O)(=O)c2ccc(C)cc2)cc1` [Compound 4j, N-[5-nitro-2-(4-toluenesulfonylamino)-4-(o-tolylsulfanyl)-phenyl]-4-toluenesulfonamide] yielded an IC50 (Recombinant human Src; [2]) of 1.7 µM, an IC50 (FGF receptor (FGFr); [2]) of 8.6 µM and an IC50 (Recombinant Csk; [2]) of 12 µM.

For `COc1ccc(Oc2ccc(NS(=O)(=O)c3ccc(C)cc3)c(C(=O)O)c2)cc1` [Compound 68, 5-(4-methoxy-phenoxy)-2-(4-toluenesulfonylamino)-benzoic acid], the IC50 (Recombinant human Src; [3]) was 133 µM, the “IC50 (μM) FGFr” value (FGF receptor (FGFr); [3]) was “NI (NI = no inhibition at 100 μg/mL)” and the IC50 (Recombinant Csk; [3]) was 303 µM.

For `COC(=O)c1cc(NS(=O)(=O)c2ccc(C)cc2)c(NS(=O)(=O)c2ccc(C)cc2)cc1Oc1ccc(OC)cc1` [Compound 33, Methyl 2-(4-methoxy-phenoxy)-4,5-bis-(4-toluenesulfonylamino)-benzoate], the IC50 (Recombinant human Src; [4]) was 67 µM, the “IC50 (μM) FGFr” value (FGF receptor (FGFr); [4]) was “NI (NI = no inhibition at 100 μg/mL)” and the IC50 (Recombinant Csk; [4]) was greater than 168 µM.

With `Cc1ccc(S(=O)(=O)Nc2ccc(Oc3ccc(F)cc3)cc2NS(=O)(=O)c2ccc(C)cc2)cc1` [Compound 12t, N-[4-(4-fluoro-phenoxy)-2-(4-toluenesulfonylamino)-phenyl]-4-toluenesulfonamide] the IC50 (Recombinant human Src; [1]) was 19 µM, the IC50 (FGF receptor (FGFr); [1]) was 40 µM and the IC50 (Recombinant Csk; [1]) was 105 µM.

Source: patent US20060004197A1, “Sulfonamide-based compounds as protein tyrosine kinase inhibitors” (priority 2004, published 2006)
